Entries after “also recorded” stand apart in the source; their conditions may differ.
Tests used:
harmaline-induced tremor = assay: Rat Harmaline Induced Tremor (rHIT) model; assay type: in vivo; conditions: 0.3, 1, 3, 10 mg/kg i.p., 30 min before harmaline 30 mg/kg i.p. (FIG. 9)
Description: A rat model of tremor (Rat Harmaline Induced Tremor; rHIT) was used to assess the impact of Compound 1 on reducing the symptoms of tremor. Male SD rats (SLAC, Shanghai, China) having a body weight of about 250 g at the time of testing were fed ad libitum and kept in a 12:12 light-dark cycle room, with the lights on from 5 a.m. to 5 p.m, throughout the study. Rats were allowed to acclimate to standard laboratory conditions for at least 5-7 days prior to the experiment.
One day prior to testing, a naive rat was placed in the testing chamber, which was a plexiglass chamber with a piezoelectric plate attached at the bottom to transduce tremor behavior into an electrical signal. The rat was placed in the chamber in order to adjust the spontaneous activity baseline signal. […]
Next, at T=0 minutes, all groups were intraperitoneally administered 30 mg/kg (5 mL/kg) of harmaline formulated in a saline vehicle. The post-harmaline effect was measured for twenty minutes (T=10 to 30 minutes). […]
Piezoelectric plate signal analysis: For the power spectral density analysis, electrical tremor signal was processed with fast Fourier transform (FFT) at a resolution of 0.5 Hz bins. […] The average maximum power density across the 8-13 Hz band in 0.5 Hz bins was also calculated. […]

[1] = Example 3 Part C: tablet single ascending doses, morning fasted vs 8 p.m., plasma pharmacokinetics; assay type: in vivo, human; conditions: for half-life: Mean (SD); for AUC(0-inf): AUCinf
Protocol: Patients with severe major depressive disorder (MDD) aged 18 to 65 years were treated with an oral suspension or tablet of Compound 1 to study the effect of food and time of administration on the pharmacokinetics, as well as the safety and tolerability of these formulations.
Part C is a randomized, participant- and Investigator-blinded, Sponsor-unblinded, placebo-controlled, parallel-group design to evaluate the pharmacokinetics and safety of single ascending doses of a Compound 1 citrate tablet. One cohort of 16 participants was planned, with 12 participants receiving Compound 1 and 4 participants receiving placebo. Part C also evaluated administration of a single dose level at 8 p.m., both 2 hours and 4 hours after dinner.
Preliminary pharmacokinetics data from Part A, where 45 mg and 60 mg of oral suspension were administered (Cohort 1), and Part C, where 40 mg (2×20 mg), 60 mg (3×20 mg) and 80 mg (4×20 mg) of the tablet formulation were administered, have been analyzed and are summarized below.
A tablet comprising Compound 1 was administered as single ascending doses of 40 mg, 60 mg and 80 mg under fasted conditions in the morning (FIG. 5). The 60 mg dosage was administered on two additional occasions at 8 p.m., once 4 hours after dinner and once 2 hours after dinner (FIG. 6).

[2] = Food Effect Cohort (Cohort 4), plasma pharmacokinetics fasted vs high-fat meal; assay type: in vivo, human
Protocol: A Food Effect Cohort (Cohort 4) was conducted to assess the effect of food on the PK profile of a single dose of Compound 1 when administered to healthy subjects. The subjects of Cohort 4 were treated with 30 mg of Compound 1 QD.
Cohort 4 subjects received a single 30 mg dose of a Compound 1 suspension on Days 1 and 5. The Day 1 dose was administered after a minimum of 10 hour fasting. No additional fluid intake was allowed until 1 hour after drug administration. A standard meal was given at least 4 hours post-dose. The Day 5 dose was administered following a high-fat, high calorie meal. Participants remained at the clinical site for a total of 8 days to complete pharmacokinetic sampling after the second dose.
Plasma samples were analyzed to determine Compound 1 concentrations using a validated assay method. Pharmacokinetic variables (including but not limited to Cmax, Tmax and AUC(0-last)) were calculated using non-compartmental analysis. PK parameters for Compound 1 were derived from the plasma concentration data using non-compartmental analysis with Phoenix™ WinNonlin® v 8.0 (Pharsight Corporation, USA).
Blood (Cohort 4): Serial blood samples were collected relative to the dosing of Compound 1 at the following time points on both Day 1 and Day 5: Pre-dose (0 hours), 0.25, 0.50, 0.75, 1.00, 1.50, 2.00, 2.50, 3.00, 4.00, 6.00, 8.00, 12.00, 16.00, 24.00, 36.00, 48.00 and 72.00 hours post-dose (±2 min).

[3] = 30 mg single dose, Fasted (Day 1), n = 10, Mean
[4] = 30 mg single dose, Fed (high-fat, high calorie meal), n = 10, Mean

SMILES: COC[C@@]1(O)CC[C@@]2(C)[C@@H](CC[C@@H]3[C@@H]2CC[C@]2(C)[C@@H](C(=O)Cn4ccnc4)CC[C@@H]32)C1 [Compound 1, 3α-Hydroxy-3β-methoxymethyl-21-(1′-imidazolyl)-5α-pregnan-20-one]
- inhibition of harmaline-induced tremor (harmaline-induced tremor): dose-dependently inhibits; also recorded: dose dependent inhibition
- Tmax ([1]; human, in vivo, 40 mg): 1.5 h
- half-life ([1]; human, in vivo, 40 mg, 9 a.m. administration (fasted), N = 13): 11.9 h
- AUC(0-inf) ([1]; human, in vivo, 40 mg): 1390 ng·h/mL
- Cmax ([1]; human, in vivo, 40 mg): 181 ng/mL
- Tmax ([1]; human, in vivo, 60 mg): 2.5 h
- tmax ([1]; human, in vivo, 60 mg): 2.5 (1.0, 3.0) h
- half-life ([1]; human, in vivo, 60 mg, 8 p.m. administration (60 mg), 2 h after dinner, N = 12): 9.6 h
- half-life ([1]; human, in vivo, 60 mg, 8 p.m. administration (60 mg), 4 h after dinner, N = 11): 11.4 h
- half-life ([1]; human, in vivo, 60 mg, 9 a.m. administration (fasted), N = 12): 11.5 h
- AUC(0-inf) ([1]; human, in vivo, 60 mg): 2610 ng·h/mL
- Cmax ([1]; human, in vivo, 60 mg): 408 ng/mL
- half-life ([1]; human, in vivo, 80 mg, 9 a.m. administration (fasted), N = 12): 11.4 h
- AUC(0-inf) ([1]; human, in vivo, 80 mg): 3980 ng·h/mL
- Cmax ([1]; human, in vivo, 80 mg): 546 ng/mL
- dose proportionality of exposure ([1]; tablet, fasted, between 60 mg and 80 mg): closer to dose-proportional
- increase in exposure over a 2-fold increase in dose ([1]; tablet, fasted, from 40 mg to 80 mg): ~3 fold
- t1/2 fasted vs fed conditions ([2]; 30 mg dose): similar
- AUC increase in the fed state versus the fasted state ([2]; 30 mg dose group): 1.17 fold
- AUC0-t Fed/Fasted Ratio ([2]; 30 mg dose, high-fat meal): 1.17
- Cmax Fed/Fasted Ratio ([2]; 30 mg dose, high-fat meal): 0.64
- AUC0-last [2, 3]: 597.7 ng·h/mL
- AUC %Extrap [2, 3]: 0.8702%
- AUCinf [2, 3]: 602.3 ng·h/mL
- Cmax [2, 3]: 84.18 ng/mL
- AUC0-last [2, 4]: 629.9 ng·h/mL
- AUC %Extrap [2, 4]: 0.6632%
- AUCinf [2, 4]: 634.2 ng·h/mL
- Cmax [2, 4]: 45.36 ng/mL
- Tmax ([2]; 30 mg single dose, Fed (high-fat, high calorie meal), n = 10, Median): 3.25 h
- Cmax decrease under fed conditions ([2]; human, in vivo, 30 mg): 0.64 fold
- half-life ([2]; human, in vivo, 30 mg single dose, Fasted (Day 1), n = 10, Mean): 11.2 h

— patent publication US20240197756A1, “METHODS OF TREATMENT WITH NEUROACTIVE STEROIDS” (priority 2021, published 2024)
